The text below walks through data of patent US4225526A, “8-[(4-Aminophenyl)sulfonyl]amino-2-naphthalenyl phosphorodiamidate” (Morton-Norwich Products, Inc., priority 1979, dated 1980).

The assay addresses T1, urease of intact Proteus mirabilis cells (Proteus mirabilis, UniProt P17086).
T1 construct: using intact Proteus mirabilis cells as the source of urease; endogenous in cells; host or cells: intact Proteus mirabilis cells
The experiment in a line: anti-urease potency using intact Proteus mirabilis cells. To be noted: 40 minutes preincubation, pH 8.0; ammonia formed in five minutes after addition of urea; read-out: concentration evincing 50% inhibition of the urease of intact Proteus mirabilis cells. It counts as cell-based. On the procedure:
The anti-urease potency of the compound of this invention was determined using intact Proteus mirabilis cells as the source of urease. Compounds were preincubated with Proteus mirabilis cells suspended in a saline solution (0.1 molar) buffered with 0.1 molar tris(hydroxymethyl)aminomethane (pH 8.0). After 40 minutes preincubation, the remaining urease activity was determined by collecting the ammonia formed in five minutes after the addition of the substrate, urea. Ammonia assays were carried out according to the procedure of Seligson and Seligson [J. Lab. Clin. Med. 38, 324-330 (1951)]. Percent inhibition was calculated by comparing the amount of ammonia generated by cells preincubated with 8-[(4-aminophenyl)sulfonyl]amino-2-naphthalenyl phosphorodiamidate with the controls in which preincubation was carried out in the absence of compound.

Structures are written as SMILES.

T1 sequence (P17088 whole entry): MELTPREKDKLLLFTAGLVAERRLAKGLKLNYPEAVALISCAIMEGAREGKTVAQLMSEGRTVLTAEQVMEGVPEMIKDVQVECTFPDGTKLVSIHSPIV
T1 sequence (P17087 whole entry, further chain): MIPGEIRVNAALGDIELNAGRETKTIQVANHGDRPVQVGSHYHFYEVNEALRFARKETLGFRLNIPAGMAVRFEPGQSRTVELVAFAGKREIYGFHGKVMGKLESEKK
T1 sequence (P17086 whole entry): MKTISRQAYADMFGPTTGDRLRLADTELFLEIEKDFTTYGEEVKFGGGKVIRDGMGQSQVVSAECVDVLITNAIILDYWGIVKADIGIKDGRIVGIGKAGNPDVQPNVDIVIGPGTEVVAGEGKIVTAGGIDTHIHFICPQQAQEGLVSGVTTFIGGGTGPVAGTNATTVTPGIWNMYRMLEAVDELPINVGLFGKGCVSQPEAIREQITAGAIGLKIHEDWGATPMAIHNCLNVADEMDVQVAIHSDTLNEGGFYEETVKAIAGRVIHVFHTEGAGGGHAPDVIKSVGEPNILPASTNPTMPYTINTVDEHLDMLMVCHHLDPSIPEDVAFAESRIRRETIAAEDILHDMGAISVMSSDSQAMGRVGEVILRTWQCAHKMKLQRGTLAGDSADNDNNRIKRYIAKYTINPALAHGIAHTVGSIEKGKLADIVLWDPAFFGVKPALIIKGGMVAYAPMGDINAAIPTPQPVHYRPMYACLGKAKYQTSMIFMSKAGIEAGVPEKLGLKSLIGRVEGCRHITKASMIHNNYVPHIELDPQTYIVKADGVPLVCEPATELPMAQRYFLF

As to `Nc1ccc(S(=O)(=O)Nc2cccc3ccc(OP(N)(N)=O)cc23)cc1` [this compound, 8-[(4-aminophenyl)sulfonyl]amino-2-naphthalenyl phosphorodiamidate], the IC50 came to 400 nM.
